Assay: Free radicals generated inside a formulation containing perfume after UV irradiation (ESR, spin marker PCA)
Type: physicochemical
Conditions: 0.1% (w/w) perfume in formulation, diluted 1:10 in water, 0.01 mM PCA; UVB 23,5 W/m^2, UVA 180 W/m^2
Procedure: To measure the free radicals generation inside a formulation after UV irradiation, the concentration of a photostable spin marker added to the tested samples is followed by Electron Spin Resonance (ESR) spectroscopy before and after UV irradiation of the tested samples. The photostable spin marker will promptly react with the free radical generated in the formulation after UV irradiation.
0.1% (w/w) of the perfume to be tested is incorporated into the formulation, the formulation is then diluted in distillated water (1:10 dilution factor) and a water solution of the spin marker PCA (2,2,5,5,-tetramethyl pyrrolidine N-oxyl) is added to obtain a spin marker concentration of 0.01 mM. […] The sample is inserted in a capillary quartz tube to perform ESR measurement before and after 20 minutes of UV irradiation. The irradiances as integrated value over the spectral ranges of the solar simulator can exemplarily be E=23,5W/m^2 for UVB and 180W/m^2 for UVA.
The percentage of UV-induced free radicals inside the formulation containing the perfume to be tested serves as indicator to the sensitivity of said perfume.
The Electron Spin Resonance (ESR) measurements were performed with a high sensitive X-band bench top Electron Spin Resonance Spectrometer MiniScope MS300, supplied from Magnettech GmbH Berlin, Germany.
To measure the free radicals generation inside the formulation after UV irradiation, the concentration of a photostable spin marker added to the tested samples was followed by
Electron Spin Resonance (ESR) spectroscopy before and after UV irradiation of the tested samples. The photostable spin marker promptly reacted with the free radical generated in the formulation after UV irradiation.
0.1% (w/w) of the perfume to be tested (compare to Table 1) was incorporated into the formulation. The formulation was then diluted in distillated water (1:10 dilution factor) and a water solution of the spin marker PCA (2,2,5,5,-tetramethyl pyrrolidine N-oxyl) was added to obtain a spin marker concentration of 0.01 mM. Knowing the concentration of the spin trap PCA within the formulation, the amount of reduced PCA was calculated. The sample was inserted in a capillary quartz tube to perform ESR measurement before and after 20 minutes of UV irradiation. The irradiances as integrated value over the spectral ranges of the solar simulator were E=23,5 W/m^2 for UVB and 180 W/m^2 for UVA.

| Compound | % free radicals after 20 min UV irradiation [%] |
| --- | --- |
| CC(C)=CCCC(C)=CC=O [Citral, 3,7-dimethylocta-2,6-dienal] | 16.5 |
| COc1cc(C=O)ccc1O [Vanillin, 4-hydroxy-3-methoxybenzaldehyde] | 85.9 |
| CC(CC=O)CCCC(C)(C)O (stereo not shown) [Hydroxycitronellal] | 3.7 |
| CC(C)=CCCC(C)CCO (stereo not shown) [Citronellol, 3,7-dimethyloct-6-en-1-ol] | 6.6 |

Next, values leading:

| % free radicals after 20 min UV irradiation [%] | Compound |
| --- | --- |
| 4.4 | OCc1ccccc1 [Benzyl Alcohol] |
| 11.5 | O=c1ccc2ccccc2o1 [Coumarin, 2H-chromen-2-one] |
| 17.5 | O=C(OCc1ccccc1)c1ccccc1O [Benzyl Salicylate, benzyl 2-hydroxybenzoate] |

From patent US20230121157A1, “ANTI-AGING CARE COMPOSITION COMPRISING PERFUMES” (BASF SE, priority 2020, published 2023)
